Patent US20260146102A1, “METHODS FOR MODULATING REGULATORY T CELLS” (Universite de Lausanne, priority 2018, published 2026)

Experiments:
[1] = test system: YUMM1.7 melanoma; assay: YUMM1.7 melanoma-engrafted mice treated with PPARβ selective agonist; type: in vivo
Description: Tumor engraftment and treatment of tumor-bearing mice. For tumor induction, 3-week-old Braf/Pten mice were treated with 4-hydroxytamoxifen on the skin surface as described before to induce tumor formation (Ho, P. C. et al. Cancer Res 74, 3205-3217 (2014)). For tumor engraftment, 5×10^4 cells YUMM1.7, B 16-OVA, or one million MC38 tumor cells were injected subcutaneously in 50 μl PBS. Tumors were measured every 2-3 days post tumor engraftment or indicated treatments and calculated. Tumor volume was calculated by volume=(length×width^2 )/2 for engrafted tumor or volume=(length×width×height) for inducible tumor. For in vivo treatment, Yumm 1.7-bearing mice were administrated every 3 days with either DMSO or PPARβ agonist (GW 501516) (1 mg per kg of body weight, Cayman Chemical) by intraperitoneal injection. For antibody-based treatment, tumor-bearing mice were treated with anti-PD-1 antibody (200 μg per injection, BioXcell, clone 29F.1A12) and anti-CD36 antibody (200 μg per injection, clone CRF D-2712 (Driscoll, W. S., et al. Circulation research 113, 52-61 (2013)) according to indicated combination by intraperitoneal injection. For antibody treatment in the Braf/Pten mouse model, four weeks after tumor induction, tumor-bearing Braf/Pten mice were treated with anti-CD36 antibody and/or anti-PD-1 antibody as indicated above for a period of 10 days. All experiments were conducted according to Swiss federal regulations.
Tumor digestion and cell isolation. Tumors were minced into small pieces in RPMI containing 2% FBS, 1% penicillin-streptomycin (p/s), DNase I (1 μg/ml, Sigma-Aldrich), and collagenase (0.5 mg/ml, Sigma-Aldrich) and kept for digestion for 40 min at 37° C., followed by the filtration with a 70 μm cell strainer. Filtered cells were incubated with ACK lysis buffer (Invitrogen) to lyse red blood cells and then washed with fluorescent activated cell sorter (FACS) buffer (phosphate-buffered saline with 2% fetal bovine serum and 2 mM EDTA). Tumor-infiltrating leukocytes were further enriched by percoll density gradient centrifugation (800×g, 30 min) at room temperature as described before (Cheng, W. C. et al. Nat Immunol 20, 206-217 (2019)).
Flow cytometry, cell sorting, and antibodies. Single cell suspensions were incubated with Fc receptor-blocking anti-CD16/32 (93) and anti-CD351 (TX61) antibodies (Biolegend) on ice for 10 min before staining. Cell suspensions were first stained with LIVE/DEAD® Fixable Violet Dead Cell Stain Kit (ThermoFisher) at 37° C. for 10 min. After washing, surface proteins were stained for 30 min at 4° C. […] Samples were analyzed on LSRII flow cytometers (BD Biosciences) and data were analyzed with FlowJo. […]

[2] = test system: CD36-deficient Tregs; assay: NAD/NADH measurement in CD36-deficient iTregs cultured in cancer cell-conditioned medium; type: cell-based, mice; settings: 48 h, vs DMSO
Description: Cancer cell-conditioned medium and iTreg culture. iTregs were generated by activating naïve CD4^+ T cells with Dynabeads conjugated with anti-CD3 and anti-CD28 mAbs (ThermoFisher) in RMPI media supplemented with 10% FBS, 10 ng/ml TGFβ and 50 U/ml IL-2 for three days. Then activated CD 4^+ T cells were maintained in RPMI media plus 10% FBS and 50 U/ml IL-2 for another 2 days. Differentiated iTregs were firstly sorted by using FACS cell sorter and then incubated in indicated culture condition for 48 h. The survival and NAD/NADH levels of iTregs were then determined by live/dead staining and ELISA kits, respectively. For NAD/NADH measurement in CD36-KO iTregs treated with PPARβ agonist, sorted iTregs were cultured in cancer cell-conditioned medium in the presence of DMSO or GW50156 for 48 h. […]
NAD and NADH measurement. The ratio of nicotinamide adenine dinucleotide (NAD) and nicotinamide adenine dinucleotide […] (NADH) was measured by using the commercial NAD/NADH Quantification Kit (Sigma-Aldrich MAK037). […]
decomposition. The samples were then transferred to a 96 wells plate for measuring the absorbance of 450 nm. […] The ratio of NAD/NADH in a sample could be determined by the following equation: ratio=(NADtotal−NADH)/NADH.

[3] = test system: CD36-deficient Tregs; assay: Viability of iTregs in cancer cell-conditioned medium with or without NR; type: cell-based, mice; settings: NR 400 μM, 72 hrs (FIG. 3i)
Description: Cancer cell-conditioned medium and iTreg culture. iTregs were generated by activating naïve CD4^+ T cells with Dynabeads conjugated with anti-CD3 and anti-CD28 mAbs (ThermoFisher) in RMPI media supplemented with 10% FBS, 10 ng/ml TGFβ and 50 U/ml IL-2 for three days. Then activated CD 4^+ T cells were maintained in RPMI media plus 10% FBS and 50 U/ml IL-2 for another 2 days. […] The survival and NAD/NADH levels of iTregs were then determined by live/dead staining and ELISA kits, respectively. For NAD/NADH measurement in CD36-KO iTregs treated with PPARβ agonist, sorted iTregs were cultured in cancer cell-conditioned medium in the presence of DMSO or GW50156 for 48 h. Control RPMI for iTreg in vitro treatment was prepared with RPMI 1640 medium (Biological Industries) supplementing with 2 mM Glucose, 10 mM Glutamine, 10% Dialyzed FBS, 0.1% β-ME, and indicated levels of lactic acids. YUMM1.7 cancer cell-conditioned medium was collected by incubating YUMM1.7 cells (70-80% density) with control RPMI described above for 18 h. Then, culture medium was collected and centrifuged at 2000 rpm for 15 min to remove debris and cancer cells as cancer cell-conditioned medium. YUMM1.7 cancer cell-conditioned medium collected as described above was treated with Cleanascite™ reagent (Biotech Support Group) prior to Treg culture at a volume ratio of 1:5 according to the manufacturer's instruction.

cleaved caspase-3 in intratumoral Tregs ([1]; Treg^CD36−/− mice (FIG. 4i)) | SMILES | mitochondrial membrane potential of intratumoral Tregs (MitoTracker Deep Red staining) ([1]; Treg^CD36−/− mice (FIG. 4h)) | intratumoral Treg abundance (FoxP3+ Tregs among CD4+ tumor-infiltrating T lymphocytes) ([1]; Treg^CD36−/− mice, 1 mg per kg i.p. every 3 days, two weeks (FIG. 4g)) | tumor growth ([1]; Treg^CD36−/− mice, 1 mg per kg i.p. every 3 days, two weeks, vs control vehicle (FIG. 4f)) | NAD/NADH ratio [2] | viability of CD36-deficient Tregs exposed to cancer cell-conditioned medium [3]
lower levels | Cc1cc(SCc2sc(-c3ccc(C(F)(F)F)cc3)nc2C)ccc1OCC(=O)O [GW501516] | increased mitochondrial membrane potentials | restored | restored tumor growth | increased NAD/NADH ratios | –
– | NC(=O)c1ccc[n+]([C@@H]2O[C@H](CO)[C@@H](O)[C@H]2O)c1 [nicotinamide riboside] | – | – | – | – | partially rescued the viability
